In PubChem BioAssay AID1508612:

Assay: passive permeability, PAMPA, ADME assay (AID 1508612)
Conditions: pH 7.4, 30.0 min, 50.0 µM

Row | Structure (SMILES) | Papp
1 | COc1ccc(-c2ccc(C(=O)NC3CC(c4cc(=O)[nH]c(N)n4)C3)o2)cc1 (centres undefined) | 20.9 ×10⁻⁶ cm/s
2 | CN1CCC(N(Cc2cccs2)c2ccccc2)CC1 | > 1000 ×10⁻⁶ cm/s
3 | O=[S+]([O-])(Nc1ccc(C2CCNCC2)cc1)c1ccc(NCc2ccc(Br)cc2O)cc1 | 6.3 ×10⁻⁶ cm/s
4 | CC(=O)c1ccc(N2CCN(c3ccc(NC(=O)c4ccc(F)cc4)cc3C(=O)O)CC2)cc1 | 156 ×10⁻⁶ cm/s
5 | Cc1ccc(S(=O)(=O)NC2CCCCC2)cc1 | 206 ×10⁻⁶ cm/s
6 | Cn1nnnc1Sc1ncnc2scc(-c3cc4ccccc4o3)c12 | 936 ×10⁻⁶ cm/s
7 | NC(=O)C1CCN(c2nccc(-c3ccc4c(c3)OCCO4)n2)CC1 | 289 ×10⁻⁶ cm/s
8 | O=C(NCC1(c2nc(-c3ccccc3)cs2)CCOCC1)c1cccc(-c2noc(C(F)(F)F)n2)c1 | 665 ×10⁻⁶ cm/s
9 | COC(=O)c1ccccc1C(=O)Nc1nc(-c2ccccc2)cs1 | 896 ×10⁻⁶ cm/s
10 | CC(=O)Nc1nc(-c2ccc3c(c2)CCN3C(=O)c2ccccc2C)c(C)s1 | > 1000 ×10⁻⁶ cm/s
11 | O=[S+]([O-])(Nc1ccc(N2CCNCC2)cc1)c1ccc(NCc2cccc(Cl)c2O)cc1 | 7.65 ×10⁻⁶ cm/s
12 | CC(C)c1ccc(S(=O)(=O)c2cnc(SCC(=O)Nc3ccc4c(c3)OCCO4)[nH]c2=O)cc1 | 1.84 ×10⁻⁶ cm/s
13 | Cc1ccccc1C(=O)Nc1ccc2c(c1)CCCN2C(=O)c1cccs1 | 687 ×10⁻⁶ cm/s
14 | CC(C)CC(=O)Nc1n[nH]c2c1CN(C(=O)C1CCN(C)CC1)C2(C)C | < 1 ×10⁻⁶ cm/s
15 | CC(=O)c1c(C)[nH]c(C(=O)Nc2cccc([S+](=O)([O-])Nc3ccc(C#N)cc3)c2)c1C | 178 ×10⁻⁶ cm/s
16 | COC(=O)c1c(NC(=O)Cc2coc3cc(C)ccc23)sc2c1CCC2 | 26 ×10⁻⁶ cm/s
17 | CCOC(=O)c1ccc(N2C(=O)c3n[nH]c(-c4cccs4)c3C2c2ccc(OCC)cc2)cc1 (centres undefined) | 739 ×10⁻⁶ cm/s
18 | Fc1cc(Nc2nc(-c3ccncc3)nc3ccccc23)ccc1-c1cccc(OC(F)F)c1 | 30.1 ×10⁻⁶ cm/s
19 | CCOC(=O)c1ccc(N2C(=O)c3n[nH]c(-c4ccco4)c3C2c2ccc(C)cc2)cc1 (centres undefined) | 6.34 ×10⁻⁶ cm/s
20 | COc1cccc(CNCCSc2nnnn2C)c1OCc1ccc(Cl)cc1Cl | > 1000 ×10⁻⁶ cm/s
21 | O=C1CCCC2=C1C(c1[nH]ncc1Cl)N=C(Nc1nc3cc([S+](=O)([O-])N4CCOCC4)ccc3o1)N2 (centres undefined) | 169 ×10⁻⁶ cm/s
22 | O=C(O)c1cccc(-c2noc(-c3ccccc3F)n2)c1 | 111 ×10⁻⁶ cm/s
23 | CC(=O)c1ccc(-c2csc(N3CCC(C(N)=O)CC3)n2)cc1 | 300 ×10⁻⁶ cm/s
24 | Cc1cn(CCN2CCN(c3ccccc3-c3cc(C#N)cc(C(=O)NCCCN4CCCC4)c3)CC2)c2ccccc12 | < 1 ×10⁻⁶ cm/s
25 | COc1ccc(NC2CCCN(C(=O)CCc3ccccc3F)C2)cc1 (centres undefined) | 923 ×10⁻⁶ cm/s

Row | Structure (SMILES) | Papp
26 | Cc1ccc2oc3c(c(=O)c2c1)C(c1ccc(O)cc1)N(CCCN(C)C)C3=O (centres undefined) | < 1 ×10⁻⁶ cm/s
27 | c1cc(OCCN2CCCCC2)cc(-c2n[nH]c3ccc(-c4ncn[nH]4)cc23)c1 | < 1 ×10⁻⁶ cm/s
28 | CCn1c(SCc2ccc(C#N)cc2)nnc1-c1cccc(Cl)c1 | 924 ×10⁻⁶ cm/s
29 | Cc1ccccc1C(=O)N1CCc2cc(-c3nc(NC(=O)Cc4ccc5c(c4)OCO5)sc3C)ccc21 | 23.9 ×10⁻⁶ cm/s
30 | CN1C(=O)c2ccccc2[S@](=O)c2ccc(C(=O)NCc3ccc(Br)cc3)cc21 | > 1000 ×10⁻⁶ cm/s
31 | CN1C(=O)c2ccccc2[S@](=O)c2ccc(C(=O)NCCc3cccs3)cc21 | 626 ×10⁻⁶ cm/s
32 | Fc1cc(Nc2nc(-c3ccncc3)nc3ccccc23)ccc1-c1cc(F)c(F)c(F)c1 | 21.1 ×10⁻⁶ cm/s
33 | COc1ccc(C(=O)N[C@@H]2CCC[C@@H]2C(=O)N2CCC(Cc3ccccc3)CC2)cc1 | > 1000 ×10⁻⁶ cm/s
34 | O=C(Nc1cccnc1)c1cccs1 | 56.5 ×10⁻⁶ cm/s
35 | CC1=C(C(=O)Nc2ccccc2C)C(c2ccccc2Br)N=C(Nc2nc3ccccc3o2)N1 (centres undefined) | 390 ×10⁻⁶ cm/s
36 | COc1ccc(-c2csc(N3CCC(C(N)=O)CC3)n2)cc1OC | 270 ×10⁻⁶ cm/s
37 | Cn1c(C(=O)NCCc2ccccn2)nc2nc(-c3ccccc3)c(Cl)cc21 | > 1000 ×10⁻⁶ cm/s
38 | CSc1nn(Cc2cccc(C)c2)c(N)c1S(=O)(=O)c1ccccc1 | 516 ×10⁻⁶ cm/s
39 | CC(C)Oc1ccc(C(=O)Nc2ccc3c(c2)CCCN3C(=O)c2cccs2)cc1 | 491 ×10⁻⁶ cm/s
40 | CC1Cc2cc(S(=O)(=O)NCc3ccc(N(C)C)cc3)ccc2N1C(=O)C1CCC1 (centres undefined) | > 1000 ×10⁻⁶ cm/s
41 | O=C(CCCN1CCC(n2c(=O)[nH]c3ccccc32)CC1)c1ccc(F)cc1 | 952 ×10⁻⁶ cm/s
42 | COc1ccccc1NS(=O)(=O)c1cccc(NC(=O)c2[nH]c(C)c(C(C)=O)c2C)c1 | 197 ×10⁻⁶ cm/s
43 | CN(C)c1ccccc1-c1csc(N2CCC(C(N)=O)CC2)n1 | 331 ×10⁻⁶ cm/s
44 | Fc1ccc(Nc2nc(-c3ccnc4ccccc34)nc3ccccc23)cc1F | 202 ×10⁻⁶ cm/s
45 | O=C1Nc2ccccc2/C1=C\c1cc(Br)c(O)c(Br)c1 | 50.5 ×10⁻⁶ cm/s
46 | C[C@H]1CN(C(=O)Nc2ccc(F)cc2)C[C@@H]1c1nc(-c2ccccc2)no1 | > 1000 ×10⁻⁶ cm/s
47 | Oc1ccc(CNc2cccnc2)c2cccnc12 | 371 ×10⁻⁶ cm/s
48 | COc1ccc(C[C@@H]2C(=O)N[C@H](C)C(=O)N(C)[C@@H]3C(=O)N(C)[C@@H](Cc4ccc(O)c(c4)Oc4ccc(cc4)[C@H]3O)C(=O)N[C@@H](C)C(=O)N[C@H](C)C(=O)N2C)cc1 | 4.5 ×10⁻⁶ cm/s
49 | Cc1cc(N2CCN(c3ccccc3)CC2)nc(-n2nc(C)cc2C)n1 | > 1000 ×10⁻⁶ cm/s
50 | O=C(Cc1ccccc1)Nc1ccc(S(=O)(=O)Nc2nccs2)cc1 | 1.67 ×10⁻⁶ cm/s

Row | Structure (SMILES) | Papp
51 | Cc1cc(NS(=O)(=O)c2ccc(C(=O)NCc3ccc(Cl)c(Cl)c3)cc2)no1 | 46.2 ×10⁻⁶ cm/s
52 | Cc1ccc(S(=O)(=O)N[C@@H](Cc2ccccc2)C(=O)CCl)cc1 | 323 ×10⁻⁶ cm/s
53 | Fc1cccc(-c2ccc(Nc3nc(-c4ccncc4)nc4ccccc34)cc2F)c1 | 49 ×10⁻⁶ cm/s
54 | Cc1cnccc1-c1nc(Nc2ccc(F)c(F)c2)c2ccccc2n1 | 31.1 ×10⁻⁶ cm/s
55 | COc1cccc(CNc2ccc(S(=O)(=O)Nc3ccc(N4CCNCC4)cc3)cc2)c1O | > 1000 ×10⁻⁶ cm/s
56 | CNC(=O)C1=C(C)NC(Nc2nc3ccccc3o2)=NC1c1[nH]ncc1Cl (centres undefined) | 17.6 ×10⁻⁶ cm/s
57 | Cn1c(CN2CCCCC2)nc2cc(NC(=O)c3cccc(Br)c3)ccc21 | > 1000 ×10⁻⁶ cm/s
58 | COc1ccc(-n2nc(C)c([C@@H]3C=C[C@@H](NCc4ccc(F)cc4)C3)c2C)cc1 | > 1000 ×10⁻⁶ cm/s
59 | Nc1ccc(-c2cccc3c(=O)cc(N4CCOCC4)oc23)cc1 | 65.7 ×10⁻⁶ cm/s
60 | O=[S+]([O-])(Nc1ccc(N2CCNCC2)cc1)c1ccc(NCc2ccc(Br)cc2O)cc1 | 7.93 ×10⁻⁶ cm/s
61 | COc1cc(C(=O)NC2CCCc3c2[nH]c2c(Cl)cccc32)cc(OC)c1OC (centres undefined) | 593 ×10⁻⁶ cm/s
62 | CCS(=O)(=O)c1nc(-c2ccc(Cl)cc2)cc(C(F)(F)F)n1 | 975 ×10⁻⁶ cm/s
63 | C=Cc1ccc(Cn2c(C(=O)O)c(CNC3CCCCC3)c3ccc(OC)cc32)cc1 | 771 ×10⁻⁶ cm/s
64 | NC(=O)C1CCN(c2cc(-c3ccc4c(c3)OCCCO4)ncn2)CC1 | 37 ×10⁻⁶ cm/s
65 | O=C(Nc1nc(-c2ccccc2)cs1)c1ccncc1NS(=O)(=O)c1ccccc1 | 501 ×10⁻⁶ cm/s
66 | Cc1ccccc1-c1nc(NCc2ccc(-c3cccnc3)cc2)c2ccccc2n1 | 547 ×10⁻⁶ cm/s
67 | CC(=O)c1c(C)oc2ccc(N(C(=O)Oc3ccccc3)S(=O)(=O)c3ccccc3)cc12 | > 1000 ×10⁻⁶ cm/s
68 | COc1cc(Cl)cn2c(-c3cccc(NC4CNC4)n3)cnc12 | 6.1 ×10⁻⁶ cm/s
69 | Cn1cncc1[C@@](N)(c1ccc(Cl)cc1)c1ccc2c(c1)c(-c1cccc(Cl)c1)cc(=O)n2C | > 1000 ×10⁻⁶ cm/s
70 | Fc1cnc(-c2ccccc2C(F)F)nc1NCc1ccc(-n2ccnn2)cc1 | > 1000 ×10⁻⁶ cm/s
71 | COc1cccc(C(=O)Nc2nc(-c3nnn(-c4cccc(Cl)c4C)c3C)ns2)c1 | 321 ×10⁻⁶ cm/s
72 | CC(=O)N1CCC2(CCCN(c3ccc(-c4ccccc4)cc3)C2)CC1 | > 1000 ×10⁻⁶ cm/s
73 | Cc1ccc2[nH]c(-c3ccccc3)cc(=O)c2c1 | 74.9 ×10⁻⁶ cm/s
74 | CC(=O)N1CCc2cc(S(=O)(=O)NCCC3=CCCCC3)ccc21 | 444 ×10⁻⁶ cm/s
